Experimental data published in patent US9555016B2, “Lytic agents for use in treating intravascular clots” (priority 2013, dated 2017).
Where a name gives a salt, the structure may show the parent alone.

Columns and labels:
[1] = tested on: acute clots, formed from ovine blood; experiment: Mechanical compression testing (Texture Analyzer) of acute clots; conditions: acute blood clot, after 1 hour of treatment
Procedure: (§1) Acute clots, formed from ovine blood, were formed and treated with guanidine hydrochloride. Clots were formed following the general procedures set forth in Luo et al., “Creation Of Fibrinogen-Enhanced Experimental Blood Clots To Evaluate Mechanical Thrombectomy Devices For Treatment Of Acute Stroke: An In Vitro Study,” J. Vase. Interv. Radiol. 2012 August; 23(8): 1077-83. Briefly, ovine blood was contacted with about […] thrombin and about 25 mM calcium chloride. Additional acute clots were formed where about 40 mg/ml fibrinongen was first added to the ovine blood.
Guanidine chloride at concentrations of 6 M and 12 M in 0.9% sodium chloride were added to the clots, with untreated clots and clots treated with 0.2 mg/ml tPA used as controls.
The clots were subjected to mechanical testing to determine the effects of the guanidine chloride on the hardness of the clot, as well as its elasticity and lytic resistance. Briefly, a Texture Analyzer manufactured by Texture Technologies Corporation, running Exponent Software from Texture Technologies Corporation was used. […] Clot samples having a thickness of about 1 mm were prepared and placed underneath the probe, until the probe was about 3 mm above the sample surface. The Texture Analyzer subjected the sample to a 0.5 mm compression test, and then a 1 mm compression test. […]

[2] = tested on: acute clots, formed from ovine blood; experiment: Gravimetric testing of lytic resistance of acute clots
Procedure: as §1
Gravimetric testing to determine lytic resistance of the clots was carried out as follows. Briefly, an incubation shaker was heated to about 37° C. Clots were allowed to rest at a temperature of about 4° C. for 24 hours prior to testing. About 200-300 mg of clot samples were weighed out, with 1 sample placed per well in a 24 well plate. Weights were recorded.
Guanidine hydrochloride solutions were prepared as follows:
1. 12 M Guanidine hydrochloride (GH): 22.93 g GH+20 ml 0.9% sodium chloride
2. 6 M GH: 10 ml 12 M GH+10 ml 0.9% sodium chloride
3. 3 M GH: 10 ml 6 M GH+10 ml 0.9% sodium chloride
4. 1 M GH: 10 ml 3 M GH+20 ml 0.9% sodium chloride
6. 0.5 M GH: 10 ml 1 M GH+10 ml 0.9% sodium chloride
About 1 ml of each solution was placed in each well. […] The weight was recorded at each time point. […]

[3] = tested on: chronic clots, formed of collagen; experiment: Mechanical compression testing (Texture Analyzer) of chronic collagen clots
Procedure: The clots were subjected to mechanical testing to determine the effects of the guanidine chloride on the hardness of the clot, as well as its elasticity and lytic resistance. Briefly, a Texture Analyzer manufactured by Texture Technologies Corporation, running Exponent Software from Texture Technologies Corporation was used. […] Clot samples having a thickness of about 1 mm were prepared and placed underneath the probe, until the probe was about 3 mm above the sample surface. The Texture Analyzer subjected the sample to a 0.5 mm compression test, and then a 1 mm compression test. Chronic clots, formed of collagen, were formed and treated with guanidine hydrochloride. Chronic collagen clots were formed by reverse dialysis, as generally disclosed in Knight, et al., “In vitro formation by reverse dialysis of collagen gels containing highly oriented arrays of fibrils,” J. Biomed. Mater. Res., 41, 185-191 (1998). Briefly, about 1.5 grams collagen was combined with about 45 ml distilled water and 5 ml of 0.5 M acetic acid. A dialysis solution was prepared with 2% polyethylene glycol (PEG) in about 10 mM of a Tris base buffer (2000 ml distilled water added to 40 grams PEG and 2.422 grams Tris Base (also known as Trimethylol Aminomethane, Tris(hydroxymethyl)aminomethane)). […] Fibril formation was allowed to proceed over a period of about 48 hours, at which time the collagen was collected and stored in about 10 mM Tris-base solution at a pH of about 7.4 and stored at about 4° C. Additional chronic clots were prepared by combining collagen gels produced as above, and then adding genipin thereto (about 5 mM genipin solution in about 0.9% sodium chloride). Chronic clots thus formed were subjected to the hardness and gravimetric tests described above in Example 1.

[4] = tested on: chronic clots, formed of collagen; experiment: Gravimetric testing of lytic resistance of chronic collagen clots
Procedure: Gravimetric testing to determine lytic resistance of the clots was carried out as follows. Briefly, an incubation shaker was heated to about 37° C. Clots were allowed to rest at a temperature of about 4° C. for 24 hours prior to testing. About 200-300 mg of clot samples were weighed out, with 1 sample placed per well in a 24 well plate. Weights were recorded. About 1 ml of each solution was placed in each well. The plate was then placed into the incubation shaker and shaken at 160 rpm for 1 hour and 3 hours. The weight was recorded at each time point. Lytic resistance was defined as follows, as the percent clot remaining: [formula] Chronic clots, formed of collagen, were formed and treated with guanidine hydrochloride. Chronic collagen clots were formed by reverse dialysis, as generally disclosed in Knight, et al., “In vitro formation by reverse dialysis of collagen gels containing highly oriented arrays of fibrils,” J. Biomed. Mater. Res., 41, 185-191 (1998). Briefly, about 1.5 grams collagen was combined with about 45 ml distilled water and 5 ml of 0.5 M acetic acid. A dialysis solution was prepared with 2% polyethylene glycol (PEG) in about 10 mM of a Tris base buffer (2000 ml distilled water added to 40 grams PEG and 2.422 grams Tris Base (also known as Trimethylol Aminomethane, Tris(hydroxymethyl)aminomethane)). […]

[5] = chronic clots prepared without genipin

## N=C(N)N [guanidine hydrochloride]
[1]
  effect on hardness (summary, FIG. 2): significant effect on the hardness
[2]; acute blood-based clot models, increased concentrations
  clot weight (summary of gravimetric testing): did not show a decrease in weight
[2]; acute clots, increasing molar concentration of guanidine hydrochloride
  lytic resistance versus molar concentration: lytic resistance decreased upon increase in the molar concentration
[3]; [5]
  elasticity after treatment: dissolved/broken down to a point where elasticity could not be measured
  hardness after treatment: dissolved/broken down to a point where hardness could not be measured
[3]; chronic collagen clots
  effect on hardness (summary, FIG. 3): significant decrease in hardness
[4]; chronic clots, increasing molar concentration of guanidine hydrochloride
  lytic resistance versus molar concentration: lytic resistance decreased upon increase in the molar concentration
[4]; chronic collagen-based clots, after 1 hour, even at low concentrations
  dissolution of clot (summary): dissolve most of the collagen clot models
